Reference: a melting point compilation (Tetko et al.; mined from patent text by program, amines drawn as free bases though some values may be those of a salt)

Compound	melting point [°C]
COc1cc(N)c(N)cc1C(N)=O	181 to 183
CCC(=O)OC(C)c1ccc(-c2ccc(C(=O)O)cc2)cc1 (single isomer, unassigned; (+))	175 to 176
Nc1ccc(-c2ccc(N)cc2OC(F)(F)F)c(OC(F)(F)F)c1	67.5 to 68
CN(C)c1ccc(C2(c3ccc(N(C)C)cc3Cl)OC(=O)c3cc(N(C)C)ccc32)cc1 (centres undefined)	233 to 234
CN1CCOc2cc(-c3cnc4[nH]cc(C(=O)C5(C)CCCCC5)c4n3)ccc21	243 to 244
CN(C)C(C)(C)C(N)=O	109 to 111
CC1(Cc2cc3[nH]c(=O)oc3cc2Br)OCCO1	117 to 119
Cc1cc(Cl)cc(C(=O)NCC(C)S(C)=O)c1NC(=O)c1cc(C(F)(F)F)nn1-c1ncccc1Cl (centres undefined)	229 to 232
CCOC(=O)c1cnc2c(OCC)csc2c1O	223 to 224
FC1=CC2NC(=S)CCC2C=C1c1cccnc1 (centres undefined)	248
O=C1CSC(=S)N1c1ccccn1	98
COC(=O)c1cc(C(=O)N(C)CC(=O)N(C)C)c2cc(Cc3ccc(F)cc3)cnc2c1O	99 to 100
CN1CC[C@]2(c3ccccc3)CCCC[C@H]2C1 (relative stereo)	72 to 73
CCCCc1nc(C(C)(C)O)c(C(=O)OCC)n1Cc1ccc(-c2ccccc2C(=O)OC(C)(C)C)cc1	92 to 93
COCCn1nc2c(N)nc3ccccc3c2c1CC(C)(C)O	171 to 172
CN(C)C1=C(C#N)C(c2ccc(Cl)c([N+](=O)[O-])c2)c2ccc3ccccc3c2O1 (centres undefined)	218
CCC(C=CC(C)C1CCC2C3CC=C4CC(OC(=O)NCCO)CCC4(C)C3CCC12C)C(C)C (centres undefined)	172 to 173
Nc1ccc(Cl)cc1C(=O)Nc1ccc(S(=O)(=O)N2CCOCC2)cc1	229 to 231
O=C(O)COc1ccc2c(c1)-c1nc(S(=O)(=O)CC(c3ccccc3)c3ccccc3)sc1CC2	183 to 185
CN1CCC(n2nc(-c3c(-c4ccccc4)nn4ccccc34)ccc2=O)CC1	139 to 140
COC(=O)c1ccc2c(c1)C(SCCI)c1ccccc1CO2 (centres undefined)	111 to 113
NC(=O)c1nnn(Cc2ccc(Sc3ccc(Cl)cc3)c(Cl)c2)c1N	202 to 204
Nc1ncc(-c2cc(Cl)cc(Cl)c2Cl)c(N)n1	246 to 249

Compound	melting point [°C]
O=C(CCc1nnc(Nc2ccccc2Cl)o1)NC1CCN(Cc2ccc(Cl)c(Cl)c2)CC1	154 to 156
CCCCCP(=S)(CCCCC)NP(=S)(CCCCC)CCCCC	59 to 63.5
O=C(CN1CCC(Cc2ccccc2)CC1)Nc1ccc([N+](=O)[O-])cc1	126 to 128
CC(C)(O)Cn1c(N)nc2c(N)nc3c(c21)CCCC3	> 270
COc1cc(Nc2nccc(-c3ccc(NCCCN4CCN(C)CC4)nc3)n2)cc(OC)c1OC	183 to 184
CC(C)c1cc(C(C)C)c(CC(=O)NS(=O)(=O)Oc2c(C(C)C)cc(C=O)cc2C(C)C)c(C(C)C)c1	71 to 76
CCc1ccc(Cl)c(S(=O)(=O)NC(=O)c2cn3cc(C(F)(F)F)cc(Cl)c3n2)c1	214 to 215
Nc1nc2c(Oc3cc(-c4ccc(C(F)(F)F)cc4)ncn3)cccc2s1	232 to 234
S=C=Nc1ccc(-c2nc(-c3ccccn3)no2)cc1	145 to 146
CC(C)(C)c1cc(CCc2ccccc2NC(=O)N2CCC3(CC2)OCCO3)cc(C(C)(C)C)c1O	163 to 164
COC(=O)c1cc(N2C(=O)C3=C(CCCC3)C2=O)ccc1Cl	113 to 115
C=CCN1C(=O)C2CC2(c2ccc(N)cc2)C1=O (centres undefined)	104 to 106
O=C1c2cc(Oc3ccc(Cl)cc3)ccc2CCN1Cc1cccnc1	93.5 to 94.5
Cc1ccc(O[C@@H]2CCNC[C@H]2O)cc1C (relative stereo)	125 to 127
O=C(O)c1csc(C(F)F)c1	131 to 132
CC(=NNc1ccc(C2=NNC(=O)CC2)cc1)c1ccnnc1	258 to 260
Cc1cn2cccc(OCc3c(Cl)ccc(S(=O)(=O)N4CCC[C@H]4C(=O)N4CCN(C(=O)c5ccc(C=NN)cc5)CC4)c3Cl)c2n1	159 to 161
CCCOc1ccc(-c2scc(-c3ccccc3Cl)c2CC(=O)NC(=N)NCCCO)c(C)c1	103 to 106
CCC(=O)N(C)N1CC(C)(C)C(=O)c2ccc(S(=O)(=O)c3ccccc3)cc21	153 to 155
COc1ccccc1NC(=O)Oc1ccc2c(c1)N(Cc1ccccc1)CCC2	125
O=c1c2ccccc2n(CCCCl)c2ccc(Cl)cc12	141
Cc1nc2ccc3c(c2nc1C)C(=O)c1ccccc1C3=O	> 400
CC(=O)N1CCC(C(=O)Nc2ccccc2Oc2ccc(Cl)cc2Cl)CC1	194 to 196

Compound	melting point [°C]
ON=C(c1cccs1)c1cccc2nc(N[C@@H]3CCc4ccccc43)ccc12	180
COC(=O)C1CN(C(=O)COc2ccccc2)c2ccccc2CN1S(=O)(=O)c1ccc(OC)cc1 (centres undefined)	151 to 153
CC1(C)Oc2ccc(S(=O)(=O)c3cccc(O)c3)cc2[C@@H](Nc2ccnc(Cl)n2)[C@]1(C)O	> 280
CC1(C)OCC(COC(=O)Cc2cccc3c(=O)cc(C4=CCCCC4)oc23)O1 (centres undefined)	104 to 105
O=C(Cn1c(-c2cccs2)ncc(NC(=O)OCc2ccccc2)c1=O)NC(Cc1ccccc1)C(=O)C(F)(F)F (centres undefined)	108 to 111
CCC(=O)N1CCc2cc(O)c(OC)cc2C1	116 to 118
COc1ccc(CN(CCN(C)CCNC(=O)NCCSCc2csc(NC(=N)N)n2)c2ccccn2)cc1	84
CCOC(=O)/C=C/c1cn(-c2ccc(C(F)(F)F)cn2)nc1C(C)CC (centres undefined)	75 to 76
Cc1c(N2C(=O)C=CC2=O)cccc1N1C(=O)C=CC1=O	210 to 212
CC(C)(C)c1cc(CC(Cc2cc(C(C)(C)C)c(O)c(C(C)(C)C)c2)[N+](=O)[O-])cc(C(C)(C)C)c1O	161 to 165
Cc1cc2cc(CN3CCCC3)cnc2cc1NC(=O)c1ccc(-c2ccccc2)cc1F	180 to 183
Cc1ccc(SCCC(=O)c2cc(O)c(O)c([N+](=O)[O-])c2)cc1	160 to 161
Cc1ccc(C)c2c1CCC2=O	70
C=CCN1CC(C)N(C(c2ccsc2)c2cccc(O)c2)CC1C (centres undefined)	140 to 142
COc1ccc([N+](=O)[O-])c(C(C)=O)c1OC	64 to 66
CCn1c(=O)c2c(nc(/C=C/c3cccc(C(C)=O)c3)n2C)n(CC)c1=O	221 to 222
COc1cccc(CNC(=O)c2nc3ccc(SC)cc3c(=O)[nH]2)c1	168 to 170
Cc1cccc(C(C)C)c1NC(=O)CCCCCBr	66 to 67
Cc1ccccc1C(=O)Nc1ccc(C(=O)N2CCCC(NC=O)c3ccccc32)cc1 (centres undefined)	211 to 213
c1ccc(COc2ccc3ccc4cccc5ccc2c3c45)cc1	105 to 106
CCOc1c(C(=O)OCC(C)(C)C(=O)C(C)(C)C)oc2ccc(OC)cc12	105 to 106
O=C1CCC(O)=C1Cc1ccc2ccccc2c1	230 to 231
Cc1cc(C)c(C2C(=O)CC(c3ccccc3)CC2=O)c(C)c1 (centres undefined)	215 to 216
